The experiment has as its target T1, protein-protein interaction between SOS1 and KRAS G12C (Homo sapiens, UniProt P01116, C118S/C51S/C80L/G12C).
T1 construct: His6 (N); SOS1: in-house or Viva Biotech Ltd; host or cells: E. coli (KRAS)
The experiment in a line: KRAS::SOS1 AlphaScreen Binding Assay. Conditions: Table 19, intermediates C-3/C-4; 7.5 nM KRAS G12C, 10 μM GDP, 5 nM GST-SOS1; read-out: IC50 G12C::SOS 1. From the text:
This assay can be used to examine the potency with which compounds according to the invention binding to KRAS G12C inhibit the protein-protein interaction between SOS1 and KRAS G12C. […] Low IC50 values in this assay setting are indicative of strong inhibition of protein-protein interaction between SOS1 and KRAS:
• GST-tagged SOS1 (564_1049_GST_TEV_ECO) produced in-house • GST-TEV-SOS1 (564-1049) is purchased from Viva Biotech Ltd. • The expression construct of KRAS G12C (amino acids 1-169 of reference sequence P01116-2 (uniprot), with additional mutations: C51S, C80L, and C118S) containing a C-terminal avi-tag was obtained by gene synthesis (GeneArt, Thermo Fisher) in donor vector (pDONR-221) and transferred by recombinant cloning into pDEST17 vector bearing an N-terminal His6-tag. The protein was expressed in E. coli and the purified protein was biotinylated with the E. coli biotin ligase (BirA) before usage. • GDP (Sigma Cat No G7127) • AlphaLISA Glutathione Acceptor Beads (PerkinElmer, Cat No AL109) • AlphaScreen Streptavidin Donor Beads (PerkinElmer Cat No 6760002) • Assay plates: Proxiplate-384 PLUS, white (PerkinElmer, Cat No 6008289)
7.5 nM (final assay concentration) KRAS G12C, 10 μM (final assay concentration) GDP and 5 nM (final assay concentration) GST-SOS1 are mixed in assay buffer prior to use and kept at room temperature.
AlphaLISA Glutathione Acceptor Beads and AlphaScreen Streptavidin Donor Beads are mixed in assay buffer at a concentration of 10 μg/mL (final assay concentration) each prior to use and kept at room temperature.
Compounds are diluted to a final start concentration of 100 μM and are tested in duplicate. Assay-ready plates (ARPs) are generated using an Access Labcyte Workstation with a Labcyte Echo 550 or 555 acoustic dispenser. For compound a start concentration of 100 μM, 150 nL of compound solution is transferred per well in 11 concentrations in duplicate with serial 1:5 dilutions.
The assay is run using a fully automated robotic system in a darkened room below 100 Lux. 10 μL of KRAS::SOS1 GDP mix is added into columns 1-24 to the 150 nL of compound solution (final dilution in the assay 1:100, final DMSO concentration 1%).
After 30 minutes incubation time 5 μL of bead mix is added into columns 1-23. Plates are kept at room temperature in a darkened incubator. After further 60 minutes incubation, the signal is measured using a PerkinElmer Envision HTS Multilabel Reader using the AlphaScreen specifications from PerkinElmer. Each plate contains the following controls: • diluted DMSO+KRAS::SOS1 GDP mix+bead mix • diluted DMSO+KRAS::SOS1 GDP mix
IC50 values are calculated and analyzed using a 4 parametric logistic model.
Tables of example compounds disclosed herein contain IC50 values determined using the above assay.
On the technique in general: In Alpha technology, singlet oxygen from a donor bead excites a nearby acceptor bead.
T1 sequence (P01116 1-169 isoform P01116-2 G12C/C51S/C80L/C118S): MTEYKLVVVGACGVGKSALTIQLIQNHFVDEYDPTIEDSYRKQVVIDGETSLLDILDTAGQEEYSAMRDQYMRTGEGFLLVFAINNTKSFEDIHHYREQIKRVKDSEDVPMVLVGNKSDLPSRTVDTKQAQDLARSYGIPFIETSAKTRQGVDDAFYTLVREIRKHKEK
Regarding `C[C@H](Oc1cc(N2C[C@H](C)N[C@@H](C)C2)nc(-c2onc3c2CCC[C@@]32CCCc3sc(N)c(C#N)c32)n1)[C@@H]1CCCN1C` [C-3a], the 50% inhibitory concentration (IC50) turned out to be 4.6 nM.

As to `C[C@H](Oc1cc(N2CCNC3(CC3)C2)nc(-c2onc3c2CCC[C@@]32CCCc3sc(N)c(C#N)c32)n1)[C@@H]1CCCN1C` [C-3b], the IC50 stood at 2.5 nM.

For the compound `C[C@H](Oc1cc(N2C[C@H](C)NC3(CC3)C2)nc(-c2onc3c2CCC[C@@]32CCCc3sc(N)c(C#N)c32)n1)[C@@H]1CCCN1C` [C-3d], the IC50 was 4.1 nM.

Regarding `C[C@H](Oc1nc(-c2onc3c2CCC[C@@]32CCCc3sc(N)c(C#N)c32)cc(N2CCNC3(CC3)C2)n1)[C@@H]1CCCN1C` [C-3e], the half-maximal inhibitory concentration (IC50) is 45 nM.

For the compound `C[C@H](Oc1cc(N2C[C@H](C)N[C@@H](C)C2)nc(-c2noc3c2CCC[C@@]32CCCc3sc(N)c(C#N)c32)n1)[C@@H]1CCCN1C` [C-4a], the half-inhibitory concentration (IC50) was determined as 2.4 nM.

For `C[C@H](Oc1cc(N2CCNC3(CC3)C2)nc(-c2noc3c2CCC[C@@]32CCCc3sc(N)c(C#N)c32)n1)[C@@H]1CCCN1C` [C-4b], the IC50 was determined as 1.9 nM.

As to `C[C@H](Oc1nc(-c2noc3c2CCC[C@@]32CCCc3sc(N)c(C#N)c32)cc(N2C[C@H](C)N[C@@H](C)C2)n1)[C@@H]1CCCN1C` [C-4c], the 50% inhibitory concentration (IC50) came out at 37 nM.

Regarding `C[C@H](Oc1cc(N2CCNCC2)nc(-c2noc3c2CCC[C@@]32CCCc3sc(N)c(C#N)c32)n1)[C@@H]1CCCN1C` [C-4d], the IC50 amounted to 3.2 nM.

Take `CNC1CCN(c2cc(O[C@@H](C)[C@@H]3CCCN3C)nc(-c3noc4c3CCC[C@@]43CCCc4sc(N)c(C#N)c43)n2)CC1` [C-4e]: the IC50 stood at 9 nM.

As usually defined, the IC50 is the point on the concentration scale where inhibition reaches its midpoint.

Values taken from patent US20250296940A1, “ANNULATED 2-AMINO-3-CYANO THIOPHENES AND DERIVATIVES FOR THE TREATMENT OF CANCER” (Boehringer Ingelheim Int'l GmbH Corp., priority 2021, published 2025).
